In patent US20190119282A1, “IMIDAZOPYRIDAZINES USEFUL AS INHIBITORS OF THE PAR-2 SIGNALING PATHWAY” (Vertex Pharmaceuticals Incorporated, priority 2013, published 2019):

How the values were obtained:
[1] = biological target: T1, PAR2 (HT-29 cells, SLIGKV activation) (Homo sapiens, UniProt P55085); assay: Ca FLIPR TETRA assay, ANTAGONIST mode, stimulation with 8 μM SLIGKV; format: cell-based; conditions: for IC50: HT-29 cells
T1 construct: host or cells: HT-29 cells
T1 sequence (P55085 26-397): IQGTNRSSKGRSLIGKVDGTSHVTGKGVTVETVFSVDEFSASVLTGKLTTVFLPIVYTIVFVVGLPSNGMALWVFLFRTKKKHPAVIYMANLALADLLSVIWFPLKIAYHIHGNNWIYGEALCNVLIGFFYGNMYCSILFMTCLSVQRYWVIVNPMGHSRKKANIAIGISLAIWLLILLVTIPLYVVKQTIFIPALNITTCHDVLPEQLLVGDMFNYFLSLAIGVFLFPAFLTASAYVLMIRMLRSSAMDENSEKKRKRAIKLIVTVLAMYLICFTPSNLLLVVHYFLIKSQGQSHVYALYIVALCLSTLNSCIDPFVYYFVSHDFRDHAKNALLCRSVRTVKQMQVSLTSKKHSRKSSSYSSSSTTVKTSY
Description: (§1) Example 60: Protocol for Testing PAR2 Compounds in ANTAGONIST Mode Using the Ca FLIPR^TETRA Assay (384 Well)
(§2) 23000 HT-29 cells (ATCC# HTB-38) were plated in 384-well black, transparent-flat bottom plates and incubated in 25 uL of 1% FBS/McCoy's media ON at 37° C. under an atmosphere of 5% CO2. The following day, 25 uL FLIPR calcium 5 Molecular Devices assay reagent (Cat: R-8186) was added. Plates were incubated at 37° C. and r. t. for 45 min and 15 min, respectively. Compounds dilutions were prepared in 100% DMSO using a Biomek FX and diluted 20-fold in HBSS and then 5.5 uL was added directly to the cells by the FLIPR^TETRA (10× dilution) using FLIPR Tetra Pipette tips, black, non-sterile, 384 Molecular Devices (Cat: 9000-0764).
(§3) A first read was performed to determine whether the test compounds on their own can activate Ca2+ responses.
(§4) The cells were incubated with the compounds for 30 min at r. t. and then read in ANTAGONIST mode in the same plate by stimulating with 6.2 uL of a fixed concentration of the activator: final concentrations: 8 μM SLIGKV, 1 U/mL Thrombin, 3.1 U/mL trypsin, or 0.6 μM UTP.

[2] = system: Thrombin-stimulated Ca2+ response in HT-29 cells; assay: Ca FLIPR TETRA assay, ANTAGONIST mode, stimulation with 1 U/mL Thrombin; format: cell-based, human; conditions: HT-29 cells, stimulation with 1 U/mL Thrombin
Description: as §1, §2, §3, §4

[3] = system: UTP-stimulated Ca2+ response in HT-29 cells; assay: Ca FLIPR TETRA assay, ANTAGONIST mode, stimulation with 0.6 μM UTP; format: cell-based, human; conditions: Homo sapiens; HT-29 cells, stimulation with 0.6 μM UTP
Description: as §1, §2, §3, §4

[4] = biological target: T2, PAR2 (HT-29 cells, trypsin activation) (Homo sapiens, UniProt P55085); assay: Ca FLIPR TETRA assay, ANTAGONIST mode, stimulation with 3.1 U/mL trypsin; format: cell-based; conditions: for Trypsin % @ 50 μM: reported prior-art compounds
T2 construct: host or cells: HT-29 cells
T2 sequence (P55085 26-397): T1 sequence (P55085 26-397)
Description: as §1, §2, §3, §4

[5] = antagonist mode, stimulation with 8 μM SLIGKV
[6] = HT-29 cells, antagonist mode, stimulation with 3.1 U/mL trypsin
[7] = Table 6, HT-29 cells, 3.1 U/mL trypsin
[8] = Table 8, reported compounds of WO2005/030773, JP2003286171, JP2004170323
[9] = Table 8, reported compounds of WO2005/030773, JP2003286171, JP2004170323, HT-29 cells

Row | IC50 ([1]; Table 6, 8 μM SLIGKV) [µM] | IC50 [4, 7] [µM] | IC50 [1, 8] [µM] | IC50 [4, 9] [µM] | other results | SMILES
1 |  |  |  |  | IC50 ([1]; stimulation with 8 μM SLIGKV): 0.089 µM; IC50 ([2]; Homo sapiens): > 50 µM; IC50 [3]: > 50 µM | O=C(c1cn2nc(-c3ccc(F)cc3)cc(C(F)(F)F)c2n1)N1CCCCCC1 [Compound I-7, Azepan-1-yl-[6-(4-fluorophenyl)-8-(trifluoromethyl)imidazo[1,2-b]pyridazine-2-yl]methanone]
2 |  |  |  |  | IC50 ([1]; stimulation with 8 μM SLIGKV): 0.74 µM; IC50 ([4]; HT-29 cells, stimulation with 3.1 U/mL trypsin): 0.92 µM; IC50 ([2]; Homo sapiens): 1.7 µM | O=C(c1cn2nc(-c3ccc(F)cc3)cc(C(F)(F)F)c2n1)N1CCCCC1c1nccs1 (stereo not shown) [Compound I-73]
3 |  |  |  |  | IC50 [1, 5]: 0.0028 µM; IC50 [4, 6]: 0.0096 µM; IC50 ([2]; Homo sapiens, antagonist mode): > 1 µM | CC(C)(C)c1cc(-c2ccc(F)cc2)nn2cc(C(=O)N3CCC(O)CC3(C)C)nc12 (stereo not shown) [Compound I-484, (8-(tert-butyl)-6-(4-fluorophenyl)imidazo[1,2-b]pyridazin-2-yl)(4-hydroxy-2,2-dimethylpiperidin-1-yl)methanone]
4 |  |  |  |  | IC50 [1, 5]: 0.0008 µM; IC50 [4, 6]: 0.0009 µM; IC50 ([2]; antagonist mode): > 1 µM | COC(=O)C1CC(C(=O)N2CCN(C(=O)c3cn4nc(-c5ccc(F)cc5)cc(C(C)(C)C)c4n3)C(C)(C)C2)C1 (stereo not shown) [Compound I-538]
5 | 23 |  |  |  | Trypsin % @ 50 ([4]; Table 6, @ 50 (μM), HT-29 cells, 3.1 U/mL trypsin): 48% @ 50 | C[C@H]1CN(C(=O)c2cn3nc(-c4ccc(F)cc4)c(C(F)(F)F)cc3n2)CCN1C(=O)OCc1ccccc1 [Compound I-580]
6 | 50 | 46 |  |  |  | O=C(c1cn2nc(-c3ccc(F)cc3)cc(C(F)(F)F)c2n1)N1CCN(Cc2ccccn2)CC1 [Compound I-581]
7 | 50 | > 50 |  |  |  | N#Cc1cccnc1N1CCN(C(=O)c2cn3nc(-c4ccc(F)cc4)cc(C(F)(F)F)c3n2)CC1 [Compound I-582]
8 | 23 | > 50 |  |  |  | O=C(c1cn2nc(-c3ccc(F)cc3)cc(C(F)(F)F)c2n1)N1CCN(CCn2ccnc2)CC1 [Compound I-583]
9 | 22 | 2 |  |  |  | CCC(=O)N1CCN(C(=O)c2cn3nc(-c4ccc(F)cc4)cc(C(F)(F)F)c3n2)CC1 [Compound I-584]
10 | 27 | 24 |  |  |  | Cc1cc(-c2ccc(F)cc2)nn2cc(C(=O)N3CCC4(COC4)C3)nc12 [Compound I-585]
11 | 13 | 19 |  |  |  | Cc1cc(-c2ccc(F)cc2)nn2cc(C(=O)N3CCCC4(COC4)C3)nc12 [Compound I-586]
12 | 25 | 19 |  |  |  | CC(C)c1cc(-c2ccc(F)cc2)nn2cc(C(=O)N3CCCCC34COC4)nc12 [Compound I-587]
13 | 37 | > 50 |  |  |  | CC(C)c1cc(Cl)nn2cc(C(=O)N3CCN(C(=O)C4(O)CCOCC4)CC3(C)C)nc12 [Compound I-588]
14 | 27 | > 50 |  |  |  | CC(C)c1cc(Cl)nn2cc(C(=O)N3CCN(C(=O)C4(O)CCC4)CC3(C)C)nc12 [Compound I-589]
15 | 20 | > 50 |  |  |  | CC(C)c1cc(C2CCOCC2)nn2cc(C(=O)N3CCN(C(=O)C4(O)CCC4)CC3(C)C)nc12 [Compound I-590]
16 | 17 | 41 |  |  |  | CC(C)c1cc(-c2ccc(F)cc2)nn2cc(C(=O)N3CCNC(=O)C3)nc12 [Compound I-591]
17 |  |  | 0.057 | 0.13 |  | CCOC(=O)C1CCCCN1C(=O)c1cc2nc(-c3ccc(Cl)cc3)cc(C(F)(F)F)n2n1 (stereo not shown) [Compound P-592, reference compound]
18 |  |  |  | > 50 | SLIGKV % @ 50 μM ([1]; Table 8, @ 50 μM, reported prior-art compounds): 67% @ 50 μM | O=C(c1cc2nc(-c3ccc(Cl)cc3)cc(C(F)(F)F)n2n1)N1CCCCC1 [Compound P-593, reference compound]

Row | IC50 ([1]; Table 6, 8 μM SLIGKV) [µM] | IC50 [4, 7] [µM] | IC50 [1, 8] [µM] | IC50 [4, 9] [µM] | other results | SMILES
19 |  |  | 4.67 | 28 |  | O=C(c1cc2nc(-c3ccccc3)cc(C(F)(F)F)n2n1)N1CCCCC1 [Compound P-594, reference compound]
20 |  |  | 1.73 | 19.2 |  | CC1CCCCN1C(=O)c1cc2nc(-c3ccccc3)cc(C(F)(F)F)n2n1 (stereo not shown) [Compound P-595, reference compound]
21 |  |  | 10.8 | > 50 |  | O=C(c1ccccc1)N1CCN(C(=O)c2cc3nc(-c4ccccc4)cc(C(F)(F)F)n3n2)CC1 [Compound P-596, reference compound]
22 |  |  | 17.4 | 27 |  | CN(CCO)C(=O)c1cc2nc(-c3ccc(Cl)cc3)cc(C(F)(F)F)n2n1 [Compound P-597, reference compound]
23 |  |  | > 50 | > 50 |  | CC1CCCCN1C(=O)c1cc2nc(-c3ccc(Cl)cc3)cc(C(F)(F)F)n2n1 (stereo not shown) [Compound P-598, reference compound]
24 |  |  | 9.81 | > 50 |  | O=C(c1cc2nc(-c3ccc(Cl)cc3)cc(C(F)(F)F)n2n1)N1CCCCCC1 [Compound P-599, reference compound]
25 |  |  | 37 | > 50 |  | O=C(O)C1CCCN(C(=O)c2cc3nc(-c4ccc(Cl)cc4)cc(C(F)(F)F)n3n2)C1 (stereo not shown) [Compound P-600, reference compound]
26 |  |  | 0.061 | 0.88 |  | O=C(c1cc2nc(-c3ccccc3)cc(C(F)(F)F)n2n1)N1CCCCCC1 [Compound P-601, reference compound]
27 |  |  | 31 | > 50 |  | CN(CCO)C(=O)c1cc2nc(-c3ccccc3)cc(C(F)(F)F)n2n1 [Compound P-602, reference compound]
28 |  |  | 0.14 | 17 |  | CCOC(=O)C1CCN(C(=O)c2cc3nc(-c4ccccc4)cc(C(F)(F)F)n3n2)CC1 [Compound P-603, reference compound]
29 |  |  | 0.64 | 3.85 |  | CCOC(=O)C1CCCCN1C(=O)c1cc2nc(-c3ccccc3)cc(C(F)(F)F)n2n1 (stereo not shown) [Compound P-604, reference compound]
30 |  |  | 0.073 |  | Trypsin % @ 50 μM ([4]; Table 8): 50% @ 50 μM | CCOC(=O)C1CCN(C(=O)c2cc3nc(-c4ccc(Cl)cc4)cc(C(F)(F)F)n3n2)CC1 [Compound P-605, reference compound]
31 |  |  | 0.37 | > 50 |  | O=C(c1ccccc1)N1CCN(C(=O)c2cc3nc(-c4ccc(Cl)cc4)cc(C(F)(F)F)n3n2)CC1 [Compound P-606, reference compound]
32 |  |  | > 50 | > 50 |  | O=C(c1cc2nc(-c3ccccc3)cc(C(F)(F)F)n2n1)N1CCC(c2ccc(F)cc2)C1 (stereo not shown) [Compound P-607, reference compound]
33 |  |  | 23 | 33 |  | O=C(c1nn2c(C(F)(F)F)cc(-c3ccccc3)nc2c1Br)N1CCC(c2ccc(F)cc2)C1 (stereo not shown) [Compound P-608, reference compound]
34 |  |  | 2.8 | 14 |  | O=C(c1cc2nc(-c3ccccc3)cc(C(F)(F)F)n2n1)N1CCC(O)CC1 [Compound P-609, reference compound]
35 |  |  | 0.48 |  | Trypsin % @ 50 μM ([4]; Table 8): 63% @ 50 μM | O=C(O)C1CCCCN(C(=O)c2cc3nc(-c4ccc(F)cc4)cc(C(F)(F)F)n3n2)C1 (stereo not shown) [Compound P-610, reference compound]
36 |  |  | 0.11 | 1.25 |  | O=C(O)C1CCCCN(C(=O)c2cc3nc(-c4ccc(Cl)cc4)cc(C(F)(F)F)n3n2)C1 (stereo not shown) [Compound P-611, reference compound]
